The text below walks through data of patent US7211678B2, “Stable crystals of pyrrole compound” (Nippon Shinyaku Co., Ltd., priority 2001, dated 2007).

For data set [1] the following is noted: as described in WO96/40634; cited from earlier work.
The nature of data set [2]: Dry grinding test (planet ball mill, evaluated by powder X-ray spectrum). The note with it: 1 g, 2480 rpm for 5 hours. It counts as physicochemical. The method, then:
Type-I crystal (1 g) and type-II crystal (1 g) were respectively charged in a planet ball mill (manufactured by Fritsch Japan) and then grinded at 2480 rpm for 5 hours. The grinded crystals were evaluated by a powder X-ray spectrum.

As for `Cc1c(-c2ccccc2F)[nH]c(N)c1C#N` [the pyrrole compound, 2-amino-3-cyano-4-methyl-5-(2-fluorophenyl)pyrrole], in data set [1], the “urinary bladder capacity increasing activity” value was “excellent urinary bladder capacity increasing activity”. For the compound `Cc1c(-c2ccccc2F)[nH]c(N)c1C#N` [type-I crystal, 2-amino-3-cyano-4-methyl-5-(2-fluorophenyl)pyrrole], in data set [2], the “crystal transition after dry grinding” value is recorded as “No crystal transition was recognized”. As for `Cc1c(-c2ccccc2F)[nH]c(N)c1C#N` [type-II crystal, 2-amino-3-cyano-4-methyl-5-(2-fluorophenyl)pyrrole, reference compound], in data set [2], the “crystal transition after dry grinding” value was “transition of crystals into type-I crystal was recognized”.
